Data set [1] in a line: In vivo mouse PK, oral administration (FIG. 1). Details: species or system male C57BI mice. The conditions noted are these: 60 μmol/kg in 1% Methocel A4C, versus Example 2 of WO2008 007107. The text has this:
FIG. 1 depicts plasma concentration against time for male C57BI mice orally administered a compound of the invention or a compound of the prior art.
Various embodiments of the invention will now be described by way of illustration only with reference to the following Examples and FIG. 1 which depicts plasma concentration against time for male C57BI mice orally administered a compound of the invention or a compound of the prior art.

Data set [2] is described as follows: Metabolic stability in whole blood. In kind it is in vitro ADME. To be noted: from CLint. The protocol:
Compounds of the invention and the indicated comparative examples were tested for metabolic stability in a cytosol assay in which the compounds were incubated with commercially available human hepatic cytosol fractions and the disappearance of the compound monitored by HPLC or LC/MS. Pooled human liver cytosol fractions are less likely to represent outlier individuals than blood from a single individual and can be stored frozen, unlike whole blood. The cytosol assay thus provides a consistent assay testbed as a guide to the stability of a compound in the in vivo environment, such as when exposed to whole blood.
In short, test compounds (2 μM) are incubated in pooled human liver cytosol (Xenotech LLC Lenexa US, 1 mg/mL protein in 0.1M phosphate buffer, pH 7.4) at 37° centigrade over a one hour period. The incubations are initiated by the addition of 1 mM NADPH co-factor. Timed sub-samples were taken at 0, 20, 40 and 60 minutes and “crash precipitated” by the addition of 3 volumes of ice-cold acetonitrile. The samples were centrifuged at reduced temperature and the supernatants were separated and analyzed by LC-MS-MS.
Alternatively, an analogous stability assay is carried out in human or monkey whole blood and/or commercially available liver microsomes, such as XEN 025.

Turning to `C#C[C@@H]1CN(C(=O)[C@H](CC(C)C)NC(=O)c2ccc(-c3nc(N4CCN(C)CC4)sc3F)cc2)[C@@H]2C(=O)CO[C@H]12` [Example 2, N-[1-6-(ethynyl-3-oxo-hexahydro-furo[3,2-b]pyrrole-4-carbonyl)-3-methyl-butyl]-4-[5-fluoro-2-(4-methyl-piperazin-1-yl)thiazol-4-yl]-benzamide], the “in vivo exposure (whether measured as Cmax or AUC)” value in data set [1] is on record as “very much greater”.

Turning to `CC(C)C[C@H](NC(=O)c1ccc(-c2csc(N3CCN(C)CC3)n2)cc1)C(=O)N1C[C@@H](C)[C@H]2OCC(=O)[C@H]21` [comparative example], the “estimated / calculated whole blood half life” value in data set [2] is given as “little over an hour”.

The record behind these values is US11312693B2, “Protease inhibitors” (MEDIVIR AB, priority 2008, dated 2022).
